Assay results taken from publication PMC3063124 (The Journal of neuroscience : the official journal of the …, 2011).
Where two headings read alike, the source gives them in different places. Marks after values point to notes of the source that are not given here.

Assays:
GluN1/GluN2D [1] = molecular target: GluN1/GluN2D (Rattus norvegicus, UniProt P35439+Q62645); format: cell-based; details: HEK293, read-out: inhibition of the instantaneous current (pre-inhibition), 10 μM QNZ46 alone, nominal absence of glutamate plus glycine
Chain of GluN1/GluN2D (Rattus norvegicus, UniProt P35439+Q62645) (Q62645 28-1323, other chains not shown): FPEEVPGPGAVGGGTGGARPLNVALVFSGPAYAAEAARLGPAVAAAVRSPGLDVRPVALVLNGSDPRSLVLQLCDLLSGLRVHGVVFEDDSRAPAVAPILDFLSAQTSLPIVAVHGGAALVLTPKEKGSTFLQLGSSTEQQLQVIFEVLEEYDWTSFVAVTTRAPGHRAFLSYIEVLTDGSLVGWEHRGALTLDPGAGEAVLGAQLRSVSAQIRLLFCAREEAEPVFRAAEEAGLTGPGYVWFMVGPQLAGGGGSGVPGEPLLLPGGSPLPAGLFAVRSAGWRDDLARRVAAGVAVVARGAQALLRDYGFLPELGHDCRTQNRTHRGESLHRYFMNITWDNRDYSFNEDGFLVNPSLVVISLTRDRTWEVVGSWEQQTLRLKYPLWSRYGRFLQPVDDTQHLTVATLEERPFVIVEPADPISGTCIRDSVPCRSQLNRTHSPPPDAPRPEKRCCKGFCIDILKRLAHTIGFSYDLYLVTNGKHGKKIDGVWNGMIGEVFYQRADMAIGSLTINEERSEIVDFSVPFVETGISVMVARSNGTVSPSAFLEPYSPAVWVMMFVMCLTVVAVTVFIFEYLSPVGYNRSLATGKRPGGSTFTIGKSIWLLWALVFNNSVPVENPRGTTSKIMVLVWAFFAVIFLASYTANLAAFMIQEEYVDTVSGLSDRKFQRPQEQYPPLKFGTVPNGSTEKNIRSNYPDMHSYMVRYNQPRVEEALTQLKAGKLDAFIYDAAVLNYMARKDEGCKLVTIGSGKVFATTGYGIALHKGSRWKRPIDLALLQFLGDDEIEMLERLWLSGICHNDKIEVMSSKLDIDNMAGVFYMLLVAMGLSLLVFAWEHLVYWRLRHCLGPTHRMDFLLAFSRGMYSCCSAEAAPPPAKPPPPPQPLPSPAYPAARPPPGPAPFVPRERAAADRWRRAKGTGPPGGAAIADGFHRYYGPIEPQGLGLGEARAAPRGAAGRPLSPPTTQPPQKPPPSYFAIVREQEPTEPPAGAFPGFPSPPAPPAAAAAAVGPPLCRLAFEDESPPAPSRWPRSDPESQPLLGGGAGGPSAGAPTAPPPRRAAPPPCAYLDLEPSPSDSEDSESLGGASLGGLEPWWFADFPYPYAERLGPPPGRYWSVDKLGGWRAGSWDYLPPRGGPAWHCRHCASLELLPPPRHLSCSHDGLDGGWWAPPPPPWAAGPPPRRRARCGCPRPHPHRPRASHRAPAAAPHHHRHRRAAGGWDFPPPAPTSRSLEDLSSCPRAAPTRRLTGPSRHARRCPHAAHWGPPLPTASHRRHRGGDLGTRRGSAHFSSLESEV

GluN1/GluN2D [2] = molecular target: GluN1/GluN2D (Rattus norvegicus, UniProt Q62645); format: cell-based
Chain of GluN1/GluN2D (Rattus norvegicus, UniProt Q62645) (Q62645 28-1323, other chains not shown): as above

GluN1/GluN2C = GluN1/GluN2C (Rattus norvegicus, UniProt Q00961); format: cell-based
Chain of GluN1/GluN2C (Q00961 20-1237, other chains not shown): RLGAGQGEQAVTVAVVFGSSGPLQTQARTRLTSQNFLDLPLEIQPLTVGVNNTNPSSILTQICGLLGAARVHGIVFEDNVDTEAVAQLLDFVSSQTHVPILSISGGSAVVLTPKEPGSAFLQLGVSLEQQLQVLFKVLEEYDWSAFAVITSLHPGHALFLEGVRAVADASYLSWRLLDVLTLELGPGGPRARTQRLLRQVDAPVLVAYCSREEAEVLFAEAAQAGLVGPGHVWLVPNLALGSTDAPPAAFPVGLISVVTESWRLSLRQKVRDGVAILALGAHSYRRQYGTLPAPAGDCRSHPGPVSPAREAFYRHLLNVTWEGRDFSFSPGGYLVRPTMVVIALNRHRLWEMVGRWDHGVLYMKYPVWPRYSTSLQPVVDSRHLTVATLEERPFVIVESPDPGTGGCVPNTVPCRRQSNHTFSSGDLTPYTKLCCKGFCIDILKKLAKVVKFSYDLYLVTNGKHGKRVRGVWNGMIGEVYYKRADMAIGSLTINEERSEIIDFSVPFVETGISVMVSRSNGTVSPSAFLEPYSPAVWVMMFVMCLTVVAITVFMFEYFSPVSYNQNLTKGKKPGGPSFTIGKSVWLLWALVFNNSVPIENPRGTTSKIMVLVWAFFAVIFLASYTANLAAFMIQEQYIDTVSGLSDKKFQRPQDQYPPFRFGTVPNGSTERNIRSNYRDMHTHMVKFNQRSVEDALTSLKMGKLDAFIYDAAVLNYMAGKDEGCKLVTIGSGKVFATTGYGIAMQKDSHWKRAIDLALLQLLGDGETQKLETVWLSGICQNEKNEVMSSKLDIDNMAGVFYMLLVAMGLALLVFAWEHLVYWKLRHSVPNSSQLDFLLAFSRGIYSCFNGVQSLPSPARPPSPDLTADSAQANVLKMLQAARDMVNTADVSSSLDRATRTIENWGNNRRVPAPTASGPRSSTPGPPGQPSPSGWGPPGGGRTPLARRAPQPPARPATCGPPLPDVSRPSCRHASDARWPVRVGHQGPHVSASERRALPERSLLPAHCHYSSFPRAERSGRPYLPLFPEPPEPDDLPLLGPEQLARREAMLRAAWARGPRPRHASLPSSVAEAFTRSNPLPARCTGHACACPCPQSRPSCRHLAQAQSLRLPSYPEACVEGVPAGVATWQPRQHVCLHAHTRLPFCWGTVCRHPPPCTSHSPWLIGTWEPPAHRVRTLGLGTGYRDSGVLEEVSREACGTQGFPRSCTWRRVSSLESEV

[3] = molecular target: GluN1/GluN2A HDYS/QEQY + F680L + Y754K (Rattus norvegicus, UniProt P35439+Q00959, D675E/F680L/H674Q/S677Y/Y676Q/Y754K); assay: Two-electrode voltage-clamp recordings, mutant receptor in Xenopus oocytes; format: cell-based
[4] = molecular target: GluN1/GluN2A HDYS/QEQY + F680L + Y754K (Rattus norvegicus, UniProt Q00959, D675E/F680L/H674Q/S677Y/Y676Q/Y754K); assay: as above; format: cell-based
GluN1/2A-(2D S1) chimera = GluN1/2A-(2D S1) chimera (Rattus norvegicus, UniProt Q00959+Q62645); assay: Two-electrode voltage-clamp recordings, chimeric receptor in Xenopus oocytes; format: cell-based
GluN1/GluN2D M726A [5] = molecular target: GluN1/GluN2D M726A (Rattus norvegicus, UniProt Q62645, M726A); assay: Two-electrode voltage-clamp recordings, mutant receptor in Xenopus oocytes; format: cell-based
Chain of GluN1/GluN2D M726A (Rattus norvegicus, UniProt Q62645, M726A) (Q62645 28-1323 M726A, other chains not shown): as the sequence (Q62645 28-1323, other chains not shown) above, with M699A counted along it

GluN1/GluN2D M726A [6] = molecular target: GluN1/GluN2D M726A (Rattus norvegicus, UniProt P35439+Q62645, M726A); assay: as above; format: cell-based
Chain of GluN1/GluN2D M726A (Rattus norvegicus, UniProt P35439+Q62645, M726A) (Q62645 28-1323 M726A, other chains not shown): as the sequence (Q62645 28-1323, other chains not shown) above, with M699A counted along it

GluN1/GluN2D K779Y [7] = molecular target: GluN1/GluN2D K779Y (Rattus norvegicus, UniProt Q62645, K779Y); assay: as above; format: cell-based
Chain of GluN1/GluN2D K779Y (Rattus norvegicus, UniProt Q62645, K779Y) (Q62645 28-1323 K779Y, other chains not shown): as the sequence (Q62645 28-1323, other chains not shown) above, with K752Y counted along it

GluN1/GluN2D K779Y [8] = molecular target: GluN1/GluN2D K779Y (Rattus norvegicus, UniProt P35439+Q62645, K779Y); assay: as above; format: cell-based
Chain of GluN1/GluN2D K779Y (Rattus norvegicus, UniProt P35439+Q62645, K779Y) (Q62645 28-1323 K779Y, other chains not shown): as the sequence (Q62645 28-1323, other chains not shown) above, with K752Y counted along it

[9] = extracellular oocyte recording solution; ref Mosley et al., 2010; cited from earlier work
GluN1/GluN2A = GluN1/GluN2A (Rattus norvegicus, UniProt Q00959); format: cell-based
[10] = 1 μM QNZ46 plus glycine continuously present, after removal of glutamate
[11] = 3 μM QNZ46 plus glycine continuously present, after removal of glutamate
[12] = fold shift relative to GluN1/GluN2D
[13] = fixed during fitting to the Hill equation

COc1ccc2nc(/C=C/c3cccc([N+](=O)[O-])c3)n(-c3ccc(C(=O)O)cc3)c(=O)c2c1 [QNZ46, (E)-4-(6-methoxy-2-(3-nitrostyryl)-4-oxoquinazolin-3(4H)-yl)-benzoic acid]
inhibition at 10 µM (GluN1/GluN2D [1]): ~11%
τinhibition (GluN1/GluN2D [2]; 1 μM QNZ46 applied after activation): 356 ± 6 ms
Deactivation % slow (GluN1/GluN2D [2]; 1 μM QNZ46 plus glycine continuously present): 78%
Deactivation τfast (GluN1/GluN2D [2]; [10]): 1210 ± 150 ms
Deactivation τslow (GluN1/GluN2D [2]; [10]): 5640 ± 160 ms
τinhibition (GluN1/GluN2D [2]; 1 μM QNZ46 present before, during, and after activation): 344 ± 6 ms
τinhibition (GluN1/GluN2D [2]; 3 μM QNZ46 applied after activation): 268 ± 11 ms
Deactivation % slow (GluN1/GluN2D [2]; 3 μM QNZ46 plus glycine continuously present): 79%
Deactivation τfast (GluN1/GluN2D [2]; [11]): 1340 ± 50 ms
Deactivation τslow (GluN1/GluN2D [2]; [11]): 7100 ± 180 ms
τinhibition (GluN1/GluN2D [2]; 3 μM QNZ46 present before, during, and after activation): 244 ± 5 ms
voltage-dependence of inhibition (GluN1/GluN2D [2]; 10 μM QNZ46, 1000 μM glutamate plus 100 μM glycine): independent of membrane holding potential
τinhibition (GluN1/GluN2D [2]; 10 μM QNZ46 applied after activation): 145 ± 13 ms
Deactivation % slow (GluN1/GluN2D [2]; 10 μM QNZ46 plus glycine continuously present): 100%
Deactivation τslow (GluN1/GluN2D [2]; 10 μM QNZ46 plus glycine continuously present, mono-exponential fit): 8150 ± 330 ms
τinhibition (GluN1/GluN2D [2]; 10 μM QNZ46 present before, during, and after activation): 116 ± 3 ms
τinhibition (GluN1/GluN2D [2]; 20 μM QNZ46 applied after activation): 91 ± 11 ms
Deactivation % slow (GluN1/GluN2D [2]; 20 μM QNZ46 plus glycine continuously present): 100%
Deactivation τslow (GluN1/GluN2D [2]; 20 μM QNZ46 plus glycine continuously present, mono-exponential fit): 10130 ± 280 ms
τinhibition (GluN1/GluN2D [2]; 20 μM QNZ46 present before, during, and after activation): 74 ± 2 ms
increase in QNZ46 potency by glutamate binding to GluN2D (GluN1/GluN2D [2]; IC50 with glutamate vs glycine alone or no agonists): > 10 fold
τoff for QNZ46 (GluN1/GluN2D [2]; continuous presence of glutamate): 460 ms
dependence of inhibition on agonist concentration (GluN1/GluN2D [2]; increasing concentrations of glutamate or glycine): independent of agonist concentration
increase of time constants for deactivation (τweighted) in the presence of QNZ46 (GluN1/GluN2D [2]; up to, QNZ46 1 – 20 μM, after removal of glutamate): ~ 2 fold
nH (Hill slope) (GluN1/GluN2C): 1.0
Relative IC50 (IC50 2X / IC50 2D) (GluN1/GluN2C; [12]): 1.8
IC50 [3]: 17 ± 1 µM
nH (Hill slope) [4]: 1.2
Relative IC50 (IC50 2X / IC50 2D) ([4]; fold shift relative to GluN2D): 4.4
nH (Hill slope) (GluN1/2A-(2D S1) chimera; [13]): 1.0 ^a
Relative IC50 (IC50 2X / IC50 2D) (GluN1/2A-(2D S1) chimera; fold shift relative to GluN2D): 23
nH (Hill slope) (GluN1/GluN2D M726A [5]): 1.1
Relative IC50 (IC50 2X / IC50 2D) (GluN1/GluN2D M726A [5]; fold shift relative to GluN2D): 0.1
IC50 (GluN1/GluN2D M726A [6]): 0.5 ± 0.02 µM
nH (Hill slope) (GluN1/GluN2D K779Y [7]): 1.2
Relative IC50 (IC50 2X / IC50 2D) (GluN1/GluN2D K779Y [7]; fold shift relative to GluN2D): 4.9
IC50 (GluN1/GluN2D K779Y [8]): 19 ± 2 µM
maximum solubility [9]: 70 µM
nH (Hill slope) (GluN1/GluN2A; [13]): 1.0 ^a
Relative IC50 (IC50 2X / IC50 2D) (GluN1/GluN2A; [12]): 47
